From patent publication US10444230B2, “Method and system for determination of molecular interaction parameters” (GE Healthcare Bio-Sciences AB, priority 2003, dated 2019)

Experiments:
[1] = molecular target: T1, Carbonic anhydrase (Sigma C3640) (Bos taurus, UniProt P00921); test: SPR (BIACORE S51) sequential injection kinetics, inhibitors binding to immobilized carbonic anhydrase
T1 construct: purchased Sigma C3640
Description: Kinetic analysis was performed by injecting inhibitors in 10 mM PBS buffer with 0.005% P20 and 5% DMSO at a flow of 30 μl/min.

[2] = molecular target: Thrombin (Sigma T 1063) (Homo sapiens, UniProt P00734); details: ligand densities approx. 2300 and 600 RU; 10 mM PBS, 0.005% P20, 5% DMSO, 3.4 mM EDTA

T1 sequence (P00921 whole entry): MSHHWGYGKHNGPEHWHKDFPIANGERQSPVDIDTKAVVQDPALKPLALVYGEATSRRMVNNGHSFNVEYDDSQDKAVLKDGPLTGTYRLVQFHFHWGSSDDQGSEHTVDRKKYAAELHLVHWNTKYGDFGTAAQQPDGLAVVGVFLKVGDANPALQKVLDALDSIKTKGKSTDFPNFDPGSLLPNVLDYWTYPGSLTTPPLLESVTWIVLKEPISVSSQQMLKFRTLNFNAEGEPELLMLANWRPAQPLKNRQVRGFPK

| Compound | kon ([1]; read-out: ka) [M⁻¹ s⁻¹] | kd ([1]; two ligand densities, approx. 2000 and 700 RU, 10 mM PBS, 0.005% P20, 5% DMSO) [s⁻¹] | ka [2] [M⁻¹ s⁻¹] | kd [2] [s⁻¹] |
| --- | --- | --- | --- | --- |
| NS(=O)(=O)c1ccccc1 [benzenesulfonamide] | 160000 | 0.14 | – | – |
| N=C(N)c1ccc(CNC(=O)[C@@H]2CCN2C(=O)[C@H](NCC(=O)O)C2CCCCC2)cc1 [melagatran] | – | – | 2e+07 | 0.018 |
